{
  "source": "paper PMC4191344",
  "about": "“Identification and characterization of Aβ peptide interactors in Alzheimer’s disease by structural approaches” (Frontiers in Aging Neuroscience, 2014)",
  "origin": "cited, not measured here",
  "system": "Aβ",
  "conditions": "in vitro; ref Pollio et al., 2008",
  "from_the_text": "Early literature was somewhat conflicting explicating the role of the EP24.15 metalloenzyme in the etiology of AD. This enzyme was originally erroneously thought to be the β-secretase activity initiating the processing of the APP into Aβ (Papastoitsis et al., [1994]) prior to the discovery of the beta amyloid cleaving enzyme-1 (BACE-1). The EP24.15 gene is located at a chromosomal locus that is close to a region involved with early onset AD (Meckelein et al., [1996]). […] In older transgenic animals, EP24.15 protein was increased in the hippocampus, supportive of a role in Aβ clearance though there was no attributable mechanism.",
  "data": [
    {"substance": "EP24.15: soluble, 77 kD metalloendopeptidase in the family of zinc metallopeptidases", "values": [
      {"measurement": "inhibition of Aβ toxicity by EP24.15 expression", "value": "inhibit the toxicity of Aβ in vitro"}
    ]}
  ]
}
